Laboratory results reported in US7138242B2, “Olfactory receptor expression libraries and methods of making and using them” (Johns Hopkins University, priority 1998, dated 2006).
Residue numbers refer to the chain shown, from its start.

Experiments:
[1] = system: Rho/M4NC-ratI7 TM II–VII chimeric receptor; experiment: Ca2+ imaging, HEK-293 cells co-expressing Rho/M4NC-ratI7 TM II–VII chimeric construct and Gα15,16; type: cell-based, rat; conditions: for relative Ca2+ response, octanal vs heptanal: identical experiments to mouse I7 chimera
Procedure: HEK-293 cells (obtained from the ATCC) were grown in DMEM supplemented with 10% fetal bovine serum, penicillin (100 U/ml), streptomycin (100 μg/ml) and L-glutamine (2 mM) in 5% CO2. Before transfection, the cells were seeded onto poly-L-lysine-coated 10.5×35×0.17 mm glass coverslips (Bellco) placed in the 60 mm culture dishes. Calcium phosphate-mediated transfections were performed in a 60 mm dish with 3 to 4 μg of receptor construct DNA, 1 μg of pCIS Gα 15 and Gα16 expression vector (Offermanns (1995) supra). 2 μg of pBluescript carrier DNA, and 0.3 μg of pRSV-T antigen expression vector (Gorman (1990) DNA and Protein Eng. Tech. 2:3–9). After 5 to 7 hr incubation, the cells were washed once with PBS containing 0.5 mM EDTA and 10% DMSO, then with PBS before continuing growth in regular media for 40–50 hr.
Efficient screening of expressed olfactory receptors with a large number of ligands by functional analysis requires a robust and sensitive assay system. Although the established role of cAMP in olfactory signaling offers a biochemical approach involving measurement of cAMP production in response to odorant stimulation, an alternative, rapid assay is to co-express the cloned olfactory receptors with G protein Gα15,16 subunits (see, e.g., Offermanns (1995) J. Biol. Chem. 270:15175–15180), which can promiscuously couple 7-transmembrane domain receptors that normally signal through other second messengers to the PIP2 pathway. In this reporter system, (olfactory) receptor activation leads to the generation of an IP3-mediated increase in intracellular Ca^2+, which can be measured at the single-cell level with high sensitivity and good temporal resolution using the dye FURA-2 and radiofluorometric imaging. These attributes were able to compensate for the low transfection efficiency in transient expression systems that would hinder more traditional biochemical assays.
These transfected cells were then tested for their ability to functionally respond to ligand-receptor binding. The ligand, the adrenergic agonist isoproterenol, was “bath” applied to the transfected cells and single cell Ca^2+-imaging was performed. Cells were pre-loaded with the Ca^2+-sensitive fluorescent dye FURA-2 AM (Molecular Probes) by bathing in serum-free DMEM containing 4 μM of the membrane permeant chemical for 1 hr at 37° C., then washed with a standard bath solution (130 mM NaCl, 2 mM CaCl2, 5 mM KCl, 10 mM glucose, 10 mM Na.HEPES/pH 7.4 at room temperature). For each experiment, a glass coverslip with FURA-2 loaded HEK 293 cells was introduced into an open-topped, longitudinal microperfusion chamber (300 μl bath volume mounted on a Zeiss Axiovert 135 microscope equipped with an F Fluar 40×/1.30 oil-immersion lens. The cells were superfused with test solutions typically for 30 to 40 seconds (5 ml/application) and washed out with 5 ml of bath solution at the end of each application. Each test solution was freshly diluted and manually applied with a micropipette into the chamber. Because of this manual procedure, there could be several seconds of delay in actual application from electronic tick marks used to define the beginning of application in each graph. At the same time, the solution flow might not be completely laminar. In most cases, the onset of Ca2+ rise in response to a specific solution occurred within 15 seconds of the beginning of solution application, though longer delays were sometimes observed. Acetylcholine was applied at the end of each experiment at 10 μM for 15–20 seconds. Ratiometric Ca^2+ measurements were performed as described by Grynkiewicz (1985) 260:3440–3450, with modifications using the Zeiss/Attofluor-Ratiovision imaging system. At 5-second intervals, the cells were sequentially illuminated for less than 100 ms, first at 340 nm and then at 380 nm. Fluorescence emission at 510 nm was monitored for each excitation wavelength via an intensified CCD camera. […]

[2] = target: T1, full-length mouse I7 receptor, residue 206 valine/isoleucine substitution (Mus musculus, UniProt Q9QWU6, I206V); experiment: Ca2+ imaging, full-length mouse I7 receptor with valine/isoleucine substitution at residue 206; type: cell-based; conditions: heptanal vs octanal
T1 construct: expressed in transfected cells; not repeated
T1 sequence (Q9QWU6 1-327 I206V): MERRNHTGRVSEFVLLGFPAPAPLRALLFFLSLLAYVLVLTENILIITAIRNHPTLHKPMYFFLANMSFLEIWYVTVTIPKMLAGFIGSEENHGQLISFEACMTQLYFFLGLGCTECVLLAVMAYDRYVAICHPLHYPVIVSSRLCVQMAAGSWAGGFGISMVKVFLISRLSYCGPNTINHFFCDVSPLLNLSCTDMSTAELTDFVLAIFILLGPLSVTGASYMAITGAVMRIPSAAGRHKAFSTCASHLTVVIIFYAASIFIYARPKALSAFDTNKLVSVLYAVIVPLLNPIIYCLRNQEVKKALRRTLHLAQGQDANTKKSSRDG

[3] = target: T2, full-length rat I7 olfactory receptor fused to rhodopsin N-terminus (Rattus norvegicus, UniProt P23270); experiment: Ca2+ imaging, HEK-293 cells expressing translocation domain (rhodopsin N-terminus) fused to full-length rat I7; type: cell-based
T2 construct: expressed in transfected cells; host or cells: HEK-293 with Gα15,16
T2 sequence (P23270 1-327): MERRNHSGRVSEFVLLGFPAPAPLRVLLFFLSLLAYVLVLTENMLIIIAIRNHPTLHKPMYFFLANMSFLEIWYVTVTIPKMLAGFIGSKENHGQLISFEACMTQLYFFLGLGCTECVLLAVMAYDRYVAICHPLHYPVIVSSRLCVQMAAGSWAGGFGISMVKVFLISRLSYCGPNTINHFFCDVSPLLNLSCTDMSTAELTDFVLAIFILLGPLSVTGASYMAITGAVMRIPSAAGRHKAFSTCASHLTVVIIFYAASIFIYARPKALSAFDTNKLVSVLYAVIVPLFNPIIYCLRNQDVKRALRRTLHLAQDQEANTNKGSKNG

[4] = system: Rho/M4NC-β2 TM II–VII (TM II–VII region from the β2-adrenergic receptor in pCMV-Rho/M4NC); experiment: Single-cell FURA-2 Ca2+ imaging, HEK-293 cells co-transfected with Rho/M4NC-β2 TM II–VII and Gα15,16; type: cell-based, human; conditions: bath application; cells co-transfected with Gα15,16
Procedure: HEK-293 cells (obtained from the ATCC) were grown in DMEM supplemented with 10% fetal bovine serum, penicillin (100 U/ml), streptomycin (100 μg/ml) and L-glutamine (2 mM) in 5% CO2. […] After 5 to 7 hr incubation, the cells were washed once with PBS containing 0.5 mM EDTA and 10% DMSO, then with PBS before continuing growth in regular media for 40–50 hr.
Efficient screening of expressed olfactory receptors with a large number of ligands by functional analysis requires a robust and sensitive assay system. […] In this reporter system, (olfactory) receptor activation leads to the generation of an IP3-mediated increase in intracellular Ca^2+, which can be measured at the single-cell level with high sensitivity and good temporal resolution using the dye FURA-2 and radiofluorometric imaging.
A construct with the TM II–VII region from the β2-adrenergic receptor inserted in the pCMV-Rho/M4NC vector (Rho/M4NC-β2 TM II–VII) was co-transfected with Gα15,16 into HEK-293 cells. […] Images of fluorescent cells were obtained on a Zeiss 510 confocal microscope with excitation at 488 nm.
These transfected cells were then tested for their ability to functionally respond to ligand-receptor binding. The ligand, the adrenergic agonist isoproterenol, was “bath” applied to the transfected cells and single cell Ca^2+-imaging was performed. Cells were pre-loaded with the Ca^2+-sensitive fluorescent dye FURA-2 AM (Molecular Probes) by bathing in serum-free DMEM containing 4 μM of the membrane permeant chemical for 1 hr at 37° C., then washed with a standard bath solution (130 mM NaCl, 2 mM CaCl2, 5 mM KCl, 10 mM glucose, 10 mM Na.HEPES/pH 7.4 at room temperature). […] Acetylcholine was applied at the end of each experiment at 10 μM for 15–20 seconds. […] At 5-second intervals, the cells were sequentially illuminated for less than 100 ms, first at 340 nm and then at 380 nm. Fluorescence emission at 510 nm was monitored for each excitation wavelength via an intensified CCD camera. Averaged pixel intensities within 40 to 100 regions of interest, corresponding to 40 to 100 individual cells, were digitized and stored on a computer. Attofluor-Ratiovision software (Atto Instruments) was used to determine the Ca^2+-dependent fluorescence signal expressed as the F340/F380 ratio.

[5] = target: T3, full-length rat I7 receptor, residue 206 valine/isoleucine substitution (Rattus norvegicus, UniProt P23270, V206I); experiment: Ca2+ imaging, full-length rat I7 receptor with valine/isoleucine substitution at residue 206; type: cell-based; conditions: heptanal vs octanal
T3 construct: expressed in transfected cells; not repeated
T3 sequence (P23270 1-327 V206I): T2 sequence (P23270 1-327) with V206I

[6] = system: Rho/M4NC-mouse I7 transmembrane II–VII chimeric receptor; experiment: Ca2+ imaging, Rho/M4NC-mouse I7 TM II–VII chimeric receptor in HEK-293 cells; type: cell-based; conditions: 10 μM

ligand preference [2] | intracellular Ca2+ response ([3]; 1 μM) | intracellular Ca2+ response ([3]; 30 μM) | ligand preference [5] | Structure (SMILES) | intracellular Ca2+ response ([1]; 10 μM) | relative Ca2+ response, octanal vs heptanal [1] | Ca2+ response to a second application ([1]; second application, even at 30 μM (desensitization)) | dependence of the Ca2+ response on Gα15,16 ([1]; with vs without Gα15,16) | intracellular Ca2+ response (FURA-2 F340/F380) [4] | intracellular Ca2+ response ([1]; 30 μM) | intracellular Ca2+ response [6]
preferentially recognize octanal | responded |  |  | CCCCCCCC=O [octanal] | Ca^2+ transient was observed | responded better to octanal than to heptanal | little or no effect | required the presence of Gα15,16 | no effect |  | 
 |  | small response | preferentially recognize heptanal | CCCCCCC=O [heptanal] | not 10 μM | responded better to octanal than to heptanal |  |  | no effect | responded to 30 μM | responded only to heptanal
